Data reported in US7598028B2, “Compositions and methods for detecting and treating prostate disorders” (The Regents of the University of Michigan, priority 2006, dated 2009).
Entries after “also recorded” stand apart in the source; their conditions may differ.

Key:
Assay type in all cases: cell-based, human
[1] = tested on: N1 prostate fibroblast cells; assay: Proliferation assay, add back, N1 fibroblasts; details: add back of exogenous chemokine, 96 hours
Source text: FIG. 6C describes how CXCL1, CXCL5, CXCL6, and CXCL12 stimulate N15C6 prostate epithelial cell proliferation, N1 prostate fibroblast cell proliferation, and LNCaP prostate epithelial cell proliferation compared to serum-free (SF HIE) media alone. “Add back” assays were next performed to determine whether the addition of exogenous CXCL1, CXCL5, CXCL6, and CXCL12 to defined, serum-free media induced […] or LNCaP prostate epithelial or N1 fibroblast cell proliferation. For these and all experiments utilizing N15C6 and LNCaP cells, the N15C6 and N1 cells were used between passage 35-45, and LNCaP cells between passages 25-35, for consistency. All recombinant CXC proteins were obtained from R&D systems (e.g., CXCL1, #275-GR, CXCL5, #254-X; CXCL6, #333-GC, and SDF1 alpha/CXCL12, #350-NS). Cells were plated at 50,000 cells/well in triplicate, treated for 96 hours, and counted. […] Moreover, the concentrations for CXCL1, CXCL5, CXCL6 and CXCL12 observed to be growth-stimulatory for prostate epithelial cells were similar to those secreted into the media by older prostate stromal fibroblasts (see, e.g., FIGS. 6A and 6B).

[2] = tested on: PC3 prostate cancer cells; assay: Matrigel invasion assay, PC3; details: 20 nM chemokine
Protocol: Invasion Assays. Ability to invade through synthetic basement membrane was measured by plating 15,000 cells/well onto control or Matrigel-coated membranes in duplicate using 24-well BD Matrigel Invasion Chambers (Becton-Dickinson). Cells were plated in complete media and left untreated or pre-treated with 1 ug/ml anti-CXCR2 (Biosource AHR1532X) or anti-CXCR4 (BD Pharmingen 555971) for 2 hours, then exposed to complete media only or 20 nM CXCL5 as a chemo-attractant added to the companion plate. After 24 hours of incubation, the upper surface of the membranes were ‘scrubbed’ to remove non-invasive cells, and the cells that had invaded through to the lower surface of the Matrigel-coated membranes or to the bottom of the companion plate were fixed, stained, and counted. The number of invaded cells was calculated as the average number of cells present on the lower surface of the Matrigel-coated membrane and the companion plate counted over four low power (10× objective) microscopic fields per membrane over both wells per experimental condition. […]

p65 subunit of NF-kappaB = assay: Western blot, p65 phosphorylation in N15C6 cells; details: 10 pM, 100 pM or 1 nM CXCL5 tested
Protocol: Western blot analysis Cells were lysed, proteins resolved by electrophoresis and electroblotting was carried out as described previously (Chaib H, et al., (2001) Cancer Res. 61, 2390-2394; incorporated herein by reference in its entirety). Proteins were detected using antibodies against phospho-ERK½ (Cell Signaling no. 9101), total ERK½ (Cell Signaling, no. 9102), CXCR4 (Abcam no. ab2074), CXCR7 (Abcam #Ab12870, Abcam #Ab12871, Abcam #38089), phospho-p65 (Rockland no. 100-401-264), total p65 (Rockland no. 100-4165), or beta-actin (Santa Cruz no. sc-1615), in conjunction with an ECL detection system.
Western Blot and Protein Analysis. […] Proteins were detected using antibodies against phospho-ERK½ (Cell Signaling #9101), total ERK½ (Cell Signaling, #9102), phospho-p65, (Rockland #100-401-264), total p65 (Rockland #100-4165), STAT3 (9139), phospho-STAT3 (9138), beta-actin (Santa Cruz #sc-1615), or tubulin (Upstate, #DM1A) in conjunction with an ECL detection system. […] Densitometric quantitation of immunoblot films was accomplished by scanning the original films and converting the .tiff files to grayscale. Images were inverted, and mean band intensities were measured using ImageJ (www, followed by, .nih.gov). The mean intensity of adjacent background was also measured for each band and subtracted from band intensity.

ERK ½ = assay: Western blot, ERK phosphorylation in LNCaP cells
Protocol: Western Blot Analysis. Cells were lysed, proteins resolved by electrophoresis, and electroblotting was carried out as described previously (see, e.g.; Chaib H, et al., 2001 Cancer Res. 61, 2390-2394; incorporated herein by reference in its entirety). Proteins were detected using antibodies against phospho-ERK½ (Cell Signaling #9101), total ERK½ (Cell Signaling #9102), CXCR4 (Abcam #ab2074), Elk-1 (Cell Signaling #9182), Phospho Elk-1 (Cell Signaling #9181), or beta-actin (Santa Cruz #sc-1615), in conjunction with an ECL detection system.
Western Blot and Protein Analysis. Cells were lysed, proteins resolved by electrophoresis, and electroblotting was carried out as described previously except that 20 ug protein was electrophoresed per gel lane for N15C6 cells and 100 ug protein for LNCaP cells (see, e.g., Begley L, et al., Aging Cell. 2005 December; 4(6):291-8; Begley L A, et al., J Biol. Chem. 2007 Sep. 14; 282(37):26767-74; each herein incorporated by reference in their entireties). Proteins were detected using antibodies against phospho-ERK½ (Cell Signaling #9101), total ERK½ (Cell Signaling, #9102), phospho-p65, (Rockland #100-401-264), total p65 (Rockland #100-4165), STAT3 (9139), phospho-STAT3 (9138), beta-actin (Santa Cruz #sc-1615), or tubulin (Upstate, #DM1A) in conjunction with an ECL detection system. Secondary antibodies included goat anti-rabbit (Cell Signaling, #7074) and goat anti-mouse (Santa Cruz, #SC-2005), and both were used at a 1:5000 concentration. Immunoblots shown are representative of triplicate experiments. Densitometric quantitation of immunoblot films was accomplished by scanning the original films and converting the .tiff files to grayscale. Images were inverted, and mean band intensities were measured using ImageJ (www, followed by, .nih.gov). The mean intensity of adjacent background was also measured for each band and subtracted from band intensity.

## CXCL5: recombinant human CXCL5 (R&D Systems, 254-X), CXC-type chemokine
[1]
  cell proliferation compared to serum-free (SF HIE) media alone: stimulate
[2]
  invasion through Matrigel versus control media / vehicle: invaded; also recorded: significantly more
p65 subunit of NF-kappaB
  NFkappaB subunit activation: evident only after treatment with 1 nM CXCL5
ERK ½; 10 pM or 100 pM CXCL5
  ERK ½ phosphorylation: rapidly and transiently phosphorylated
ERK ½; nanomolar levels of CXCL5
  activation of ERK ½: not evident
